The values that follow are results of earlier work, collected in patent US20130150551A1, “PROCESSES FOR THE PRODUCTION OF HYDROGENATED PRODUCTS AND DERIVATIVES THEREOF” (BIOAMBER S.A.S., priority 2010, published 2013).

Molecules are shown by their SMILES.

The conditions of this data set: first acid group.

For `O=C(O)CCCCC(=O)O` [AA, adipic acid], the pKa1 was 4.43.
